We go through 18 compounds from ChEMBL document CHEMBL5724914, “Linking interpersonal differences in gut microbiota composition and drug biotransformation activity” (2024).

The conditions of data set [1]: human gut metagenome, 24 h, 2 µM.
The conditions of data set [2]: human gut metagenome, 24 h, 2 µM. This is another data set of the same source.
For data set [3] the following is noted: human gut metagenome, 24 h, 2 µM. This is another data set of the same source.
The nature of data set [4]: The drug is tested on Z-004 corresponding to metagenome with ENA study accession number: PRJEB37062 and ENA sample accession number: ERS12561804 for biotransformation under anaerobic condition. The drug concentrations were measured over 9 timepoints collected between 0 and 24 hours of incubation by liquid-chromatography-coupled mass spectrometry (LC–MS). To be noted: 2 µM.

A short description of data set [5]: The drug is tested on Z-012 corresponding to metagenome with ENA study accession number: PRJEB37062 and ENA sample accession number: ERS12561812 for biotransformation under anaerobic condition. The drug concentrations were measured over 9 timepoints collected between 0 and 24 hours of incubation by liquid-chromatography-coupled mass spectrometry (LC–MS). To be noted: 2 µM.

Data set [6] can be described thus: The drug is tested on WLS-027 corresponding to human gut metagenome with ENA study accession number: PRJEB37062 and ENA sample accession number: ERS12561744 for biotransformation under anaerobic condition. The drug concentrations were measured over 9 timepoints collected between 0 and 24 hours of incubation by liquid-chromatography-coupled mass spectrometry (LC–MS). To be noted: 2 µM.

Data set [7] is described as follows: The drug is tested on WLS-090 corresponding to human gut metagenome with ENA study accession number: PRJEB37062 and ENA sample accession number: ERS12561753 for biotransformation under anaerobic condition. The drug concentrations were measured over 9 timepoints collected between 0 and 24 hours of incubation by liquid-chromatography-coupled mass spectrometry (LC–MS). To be noted: 2 µM.

The conditions of data set [8]: human gut metagenome, 24 h, 2 µM. This is another data set of the same source.
The nature of data set [9]: The drug is tested on Z-030 corresponding to mouse gut metagenome with ENA study accession number: PRJEB37062 and ENA sample accession number: ERS12561829 for biotransformation under anaerobic condition. The drug concentrations were measured over 9 timepoints collected between 0 and 24 hours of incubation by liquid-chromatography-coupled mass spectrometry (LC–MS). To be noted: 2 µM.
Further: call rule not given here.

For `CCC1(c2ccc(N)cc2)CCC(=O)NC1=O` (stereo unspecified) [AMINOGLUTETHIMIDE], the “Bacterial Biotransformation” value in data set [1], in [2], in [3], in [4], in data set [5] and in data set [6] was “Compound NOT metabolized” in each case. The “Bacterial Biotransformation” value in [7] and in [8] was “Compound NOT metabolized” in each case.
For `CN1CCc2cccc3c2[C@H]1Cc1ccc(O)c(O)c1-3` [APOMORPHINE], the “Bacterial Biotransformation” value in data set [1], in data set [2], in data set [3], in data set [9], in data set [7] and in [8] was “Compound NOT metabolized” each time.
With `C[C@@H]1CC[C@H]2[C@@H](C)C(=O)O[C@@H]3O[C@@]4(C)CC[C@@H]1[C@]32OO4` [ARTEMISININ], the “Bacterial Biotransformation” value in [1], in data set [2], in [3], in data set [9], in data set [6] and in [7] was “Compound metabolized” in each case. Moreover, the “Bacterial Biotransformation” value in data set [8] was “Compound metabolized”.
As to `OC(CCN1CCCCC1)(c1ccccc1)C1CC2C=CC1C2` (stereo unspecified) [BIPERIDEN], the “Bacterial Biotransformation” value in data set [1] is recorded as “Compound NOT metabolized”; in data set [2], “Compound metabolized”; in [3] it was “Compound NOT metabolized”; in [6] it was “Compound NOT metabolized”; in [7], “Compound metabolized”; in [8], “Compound NOT metabolized”.
In the case of `CN1C(=O)CCS(=O)(=O)C1c1ccc(Cl)cc1` (stereo unspecified) [CHLORMEZANONE], the “Bacterial Biotransformation” value in data set [1] is given as “Compound NOT metabolized”; in data set [2], “Compound NOT metabolized”; in data set [3], “Compound metabolized”; in [4], “Compound NOT metabolized”; in data set [5] it was “Compound NOT metabolized”; in [6], “Compound NOT metabolized”. Also, the figures for the “Bacterial Biotransformation” value in [7] and in [8] were “Compound metabolized” and “Compound NOT metabolized”, respectively.
With `CC(=O)O[C@]1(C(C)=O)CC[C@H]2[C@@H]3C=C(Cl)C4=CC(=O)[C@@H]5C[C@@H]5[C@]4(C)[C@H]3CC[C@@]21C` [CYPROTERONE ACETATE], the “Bacterial Biotransformation” value in data set [1], in data set [2], in data set [3], in [6], in data set [7] and in data set [8] was “Compound metabolized” in each case.
Turning to `C#C[C@]1(O)CC[C@H]2[C@@H]3CCC4=Cc5oncc5C[C@]4(C)[C@H]3CC[C@@]21C` [DANAZOL], the “Bacterial Biotransformation” value in [3], in data set [9], in [6] and in data set [7] was “Compound metabolized” in each case.
For `CCN(CC)C(=O)/C(C#N)=C/c1cc(O)c(O)c([N+](=O)[O-])c1` [ENTACAPONE], the “Bacterial Biotransformation” value in [9], in [4] and in [5] was “Compound metabolized” each time.
`CN1C[C@H](C(=O)N[C@]2(C)O[C@@]3(O)[C@@H]4CCCN4C(=O)[C@H](Cc4ccccc4)N3C2=O)C=C2c3cccc4[nH]cc(c34)C[C@H]21.CN1C[C@H](C(=O)N[C@]2(C)O[C@@]3(O)[C@@H]4CCCN4C(=O)[C@H](Cc4ccccc4)N3C2=O)C=C2c3cccc4[nH]cc(c34)C[C@H]21.O=C(O)C(O)C(O)C(=O)O` [ERGOTAMINE TARTRATE]: the “Bacterial Biotransformation” value in [1], in [2], in data set [3], in data set [6], in [7] and in [8] was “Compound metabolized” each time.
Take `COC(=O)C1=C(C)NC(C)=C(C(=O)OC(C)C)C1c1cccc2nonc12` (stereo unspecified) [ISRADIPINE]: the “Bacterial Biotransformation” value in [1], in [2], in data set [3], in [4], in data set [6] and in data set [7] was “Compound metabolized” in each case. In data set [8], the “Bacterial Biotransformation” value is given as “Compound NOT metabolized”.
For the compound `COc1c2occc2cc2ccc(=O)oc12` [METHOXSALEN], the “Bacterial Biotransformation” value in [9] is on record as “Compound NOT metabolized”; in [4], “Compound metabolized”; in data set [5], “Compound metabolized”; in data set [6] it was “Compound metabolized”; in data set [7], “Compound metabolized”; in data set [8], “Compound metabolized”.
With `CN1C(=O)CC(C)(c2ccccc2)C1=O` (stereo unspecified) [METHSUXIMIDE], the “Bacterial Biotransformation” value in [1], in [2], in [3], in data set [4], in data set [5] and in data set [6] was “Compound NOT metabolized” each time. Further, the “Bacterial Biotransformation” value in [7] is given as “Compound NOT metabolized”; in data set [8], “Compound metabolized”.
`COc1ccccc1N1CCN(CC(O)COc2cccc3ccccc23)CC1` (stereo unspecified) [NAFTOPIDIL]: the “Bacterial Biotransformation” value in data set [1], in [2], in data set [3], in data set [4], in data set [5] and in [6] was “Compound NOT metabolized” in each case. Besides, the “Bacterial Biotransformation” value in data set [7] and in data set [8] was “Compound NOT metabolized” throughout.
`CN(C(=O)CN(CCO)CC(=O)N(C)C(C)(C)Cc1ccccc1)C(C)(C)Cc1ccccc1` [OXETHAZAINE]: the “Bacterial Biotransformation” value in [1], in data set [2], in [3], in data set [6], in [7] and in data set [8] was “Compound metabolized” in each case.
As for `Cc1nc2n(c(=O)c1CCN1CCC(c3noc4cc(F)ccc34)CC1)CCCC2O` (stereo unspecified) [PALIPERIDONE], the “Bacterial Biotransformation” value in data set [1], in data set [2], in [3], in data set [9], in [6] and in [7] was “Compound metabolized” throughout. For the same compound, in data set [8], the “Bacterial Biotransformation” value is recorded as “Compound metabolized”.
Consider `CN1CCN(CC/C=C2/c3ccccc3Sc3ccc(S(=O)(=O)N(C)C)cc32)CC1` [THIOTHIXENE], for which the “Bacterial Biotransformation” value in data set [1], in [2], in [3], in data set [6], in data set [7] and in data set [8] was “Compound metabolized” each time.
With `Cc1ccc(/C(=C\CN2CCCC2)c2ccccn2)cc1` [TRIPROLIDINE], the “Bacterial Biotransformation” value in [1] is given as “Compound NOT metabolized”; in [2] it was “Compound metabolized”; in data set [3] it was “Compound NOT metabolized”; in data set [4], “Compound NOT metabolized”; in [5], “Compound NOT metabolized”; in data set [6] it was “Compound NOT metabolized”. Also, the “Bacterial Biotransformation” value in data set [7] and in data set [8] was “Compound NOT metabolized” in each case.
For the compound `CS(=O)(=O)O.O.O.O.O=C1Cc2cc(CCN3CCN(c4nsc5ccccc45)CC3)c(Cl)cc2N1` [ZIPRASIDONE MESYLATE], the “Bacterial Biotransformation” value in data set [1] was “Compound NOT metabolized”; in [2], “Compound metabolized”; in data set [3] it was “Compound metabolized”; in data set [6], “Compound metabolized”; in data set [7], “Compound metabolized”; in data set [8], “Compound NOT metabolized”.
